For this assay, the target named is T1, hCRTH2 (Homo sapiens, UniProt Q9Y5Y4).
T1 construct: expressed in transfected cells; host or cells: HEK (human embryonic kidney) cells expressing hCRTH2; membrane preparation
T1 sequence (Q9Y5Y4 1-395): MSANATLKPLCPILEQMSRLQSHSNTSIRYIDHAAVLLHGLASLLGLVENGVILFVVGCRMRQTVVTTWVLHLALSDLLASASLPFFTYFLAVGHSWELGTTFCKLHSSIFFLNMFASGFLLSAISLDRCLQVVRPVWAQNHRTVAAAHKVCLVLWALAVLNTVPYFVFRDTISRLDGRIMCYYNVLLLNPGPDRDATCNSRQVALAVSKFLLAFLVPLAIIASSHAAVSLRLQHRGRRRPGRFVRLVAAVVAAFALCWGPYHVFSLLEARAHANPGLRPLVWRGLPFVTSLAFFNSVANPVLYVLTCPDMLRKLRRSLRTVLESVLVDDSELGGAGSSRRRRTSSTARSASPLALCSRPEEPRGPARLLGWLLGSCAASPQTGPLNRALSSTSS
As to the kind of experiment: Radioligand binding assay ([3H]PGD2 competition, HEK-hCRTH2 membranes). Conditions: [3H]PGD2 competition, Table B. An outline of the steps:
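Displacement of 3.0 nM [3H]PGD2 from human CRTH2 expressed in HEK membranes was measured at room temperature over 60 min. Unlabelled PGD2 at 10 μM gave non-specific binding.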

The structures appear in SMILES notation.

In turn, `O=C(N[C@@H]1CCCc2ccccc21)c1ccc2nc(-c3ccccc3)c(CCCC(F)(F)C(=O)O)nc2c1` [compound 466, (R)-2,2-difluoro-5-(3-phenyl-7-((1,2,3,4-tetahydronaphthalen-1-yl)carbamoyl)quinoxalin-2-yl)pentanoic acid] yielded a Ki of 2.1 to 20 nM.

With `O=C(N[C@@H]1CCCc2cc(Cl)ccc21)c1ccc2nc(-c3ccccc3)c(CCCC(F)(F)C(=O)O)nc2c1` [compound 467, (R)-5-(7-((6-chloro-1,2,3,4-tetrahydronaphthalen-1-yl)carbamoyl)-3-phenylquinoxalin-2-yl)-2,2-difluoropentanoic acid], the Ki was in the range of 2.1 to 20 nM.

`O=C(N[C@@H]1CCc2cc(F)ccc21)c1ccc2nc(-c3ccccc3)c(CCCC(F)(F)C(=O)O)nc2c1` [compound 468, (R)-2,2-difluoro-5-(7-((5-fluoro-2,3-dihydro-1H-inden-1-yl)carbamoyl)-3-phenylquinoxalin-2-yl)pentanoic acid] showed a Ki of 2.1 to 20 nM.

As to `O=C(N[C@H](c1ccc(F)cc1)C(F)(F)F)c1ccc2nc(-c3ccccc3)c(CCCC(F)(F)C(=O)O)nc2c1` [compound 469, (R)-2,2-difluoro-5-(3-phenyl-7-((2,2,2-trifluoro-1-(4-fluorophenyl)ethyl)carbamoyl)quinoxalin-2-yl)pentanoic acid], the Ki is 201 to 700 nM.

Molecule `O=C(c1ccc2nc(-c3ccccc3)c(CCCC(F)(F)C(=O)O)nc2c1)N1CCN(c2ccccc2)CC1` [compound 470, 2,2-difluoro-5-(3-phenyl-7-(4-phenylpiperazine-1-carbonyl)quinoxalin-2-yl)pentanoic acid] gave a Ki of 20.1 to 200 nM.

The molecule `C[C@@H](NC(=O)c1ccc2nc(-c3ccc(F)cc3)c(CCCCC(=O)O)nc2c1)c1ccc(F)cn1` [compound 471, (R)-5-(3-(4-fluorophenyl)-7-((1-(5-fluoropyridin-2-yl)ethyl)carbamoyl)quinoxalin-2-yl)pentanoic acid] yielded a Ki of 2.1 to 20 nM.

Molecule `C[C@H](NC(=O)c1ccc2nc(-c3ccc(F)cc3)c(CCCCC(=O)O)nc2c1)c1ccc(F)cn1` [compound 472, (S)-5-(3-(4-fluorophenyl)-7-((1-(5-fluoropyridin-2-yl)ethyl)carbamoyl)quinoxalin-2-yl)pentanoic acid] yielded a Ki of 20.1 to 200 nM.

`C[C@@H](NC(=O)c1ccc2nc(-c3ccccc3)c(CCCCC(=O)O)nc2c1)c1ccc(F)cn1` [compound 473, (R)-5-(7-((1-(5-fluoropyridin-2-yl)ethyl)carbamoyl)-3-phenylquinoxalin-2-yl)pentanoic acid]: the Ki lay in the range of 2.1 to 20 nM.

`C[C@H](NC(=O)c1ccc2nc(-c3ccccc3)c(CCCCC(=O)O)nc2c1)c1ccc(F)cn1` [compound 474, (S)-5-(7-((1-(5-fluoropyridin-2-yl)ethyl)carbamoyl)-3-phenylquinoxalin-2-yl)pentanoic acid] showed a Ki of 2.1 to 20 nM.

`O=C(N[C@@H]1CCCc2cc(Cl)ccc21)c1ccc2nc(-c3ccc(F)cc3)c(CCCC(F)(F)C(=O)O)nc2c1` [compound 475, (R)-5-(7-((6-chloro-1,2,3,4-tetrahydronaphthalen-1-yl)carbamoyl)-3-(4-fluorophenyl)quinoxalin-2-yl)-2,2-difluoropentanoic acid] displayed a Ki of 2.1 to 20 nM.

In the case of `O=C(N[C@@H]1CCc2cc(F)ccc21)c1ccc2nc(-c3ccc(F)cc3)c(CCCC(F)(F)C(=O)O)nc2c1` [compound 476, (R)-2,2-dilluoro-5-(7-((5-fluoro-2,3-dihydro-1H-inden-1-yl)carbamoyl)-3-(4-fluorophenyl)quinoxalin-2-yl)pentanoic acid], the Ki is 20.1 to 200 nM.

`C[C@H](CCCc1nc2cc(C(=O)N[C@@H]3CCCc4ccccc43)ccc2nc1-c1ccc(F)cc1)C(=O)O` [compound 477, (R)-5-(3-(4-fluorophenyl)-7-(((R)-1,2,3,4-tetrahydronaphthalen-1-yl)carbamoyl)quinoxalin-2-yl)-2-methylpentanoic acid] returned an inhibitory constant (Ki) of 2.1 to 20 nM.

For the molecule `C[C@H](CCCc1nc2cc(C(=O)N[C@H]3CCCc4ccccc43)ccc2nc1-c1ccc(F)cc1)C(=O)O` [compound 478, (R)-5-(3-(4-fluorophenyl)-7-(((S)-1,2,3,4-tetrahydronaphthalen-1-yl)carbamoyl)quinoxalin-2-yl)-2-methylpentanoic acid], the Ki is 20.1 to 200 nM.

On to `C[C@H](CCCc1nc2cc(C(=O)N[C@H](C)c3ccc(F)cc3)ccc2nc1-c1ccc(F)cc1)C(=O)O` [compound 479], for which the inhibition constant (Ki) lay in the range of 20.1 to 200 nM.

Molecule `O=C(N[C@@H]1CCCc2cc(F)ccc21)c1ccc2nc(-c3ccccc3)c(CCCC(F)(F)C(=O)O)nc2c1` [compound 480, (R)-2,2-difluoro-5-(7-((6-fluoro-1,2,3,4-tetrahydronaphthalen-1-yl)carbamoyl)-3-phenylquinoxalin-2-yl)pentanoic acid] returned an inhibition constant Ki of 2.1 to 20 nM.

As to `C[C@H](CCCc1nc2cc(C(=O)N[C@@H](C)c3ccc(F)cc3)ccc2nc1-c1ccc(F)cc1)C(=O)O` [compound 481, (R)-5-(3-(4-fluorophenyl)-7-(((S)-1-(4-fluorophenyl)ethyl)carbamoyl)quinoxalin-2-yl)-2-methylpentanoic acid], the Ki was in the range of 20.1 to 200 nM.

Molecule `C[C@@H](CCCc1nc2cc(C(=O)N[C@@H]3CCCc4ccccc43)ccc2nc1-c1ccc(F)cc1)C(=O)O` [compound 482, (S)-5-(3-(4-fluorophenyl)-7-(((R)-1,2,3,4-tetrahydronaphthalen-1-yl)carbamoyl)quinoxalin-2-yl)-2-methylpentanoic acid] registered a Ki of 2.1 to 20 nM.

`C[C@@H](CCCc1nc2cc(C(=O)N[C@H]3CCCc4ccccc43)ccc2nc1-c1ccc(F)cc1)C(=O)O` [compound 483, (S)-5-(3-(4-fluorophenyl)-7-(((S)-1,2,3,4-tetrahydronaphthalen-1-yl)carbamoyl)quinoxalin-2-yl)-2-methylpentanoic acid] gave a Ki of 2.1 to 20 nM.

In the case of `C[C@@H](CCCc1nc2cc(C(=O)N[C@H](C)c3ccc(F)cc3)ccc2nc1-c1ccc(F)cc1)C(=O)O` [compound 484, (S)-5-(3-(4-fluorophenyl)-7-(((R)-1-(4-fluorophenyl)ethyl)carbamoyl)quinoxalin-2-yl)-2-methylpentanoic acid], the inhibition constant Ki lay within 2.1 to 20 nM.

For the molecule `C[C@H](NC(=O)c1ccc2nc(-c3ccc(F)cc3)c(CCC[C@H](C)C(=O)O)nc2c1)c1ccc(F)cc1` [compound 485, (S)-5-(3-(4-fluorophenyl)-7-(((S)-1-(4-fluorophenyl)ethyl)carbamoyl)quinoxalin-2-yl)-2-methylpentanoic acid], the Ki lay in the range of 2.1 to 20 nM.

`O=C(N[C@@H]1CCCc2ccccc21)c1ccc2nc(-c3ccc(F)cc3)c(CCCC(F)(F)C(=O)O)nc2c1` [compound 486, (R)-2,2-difluoro-5-(3-(4-fluorophenyl)-7-((1,2,3,4-tetrahydronaphthalen-1-yl)carbamoyl)quinoxalin-2-yl)pentanoic acid] registered a Ki of 2.1 to 20 nM.

As to `C[C@@H](NC(=O)c1ccc2nc(-c3ccc(F)cc3)c(CCCC(F)(F)C(=O)O)nc2c1)c1ccc(F)cc1` [compound 487, (R)-2,2-difluoro-5-(3-(4-fluorophenyl)-7-((1-(4-fluorophenyl)ethyl)carbamoyl)quinoxalin-2-yl) pentanoic acid], the Ki lay in the range of 20.1 to 200 nM.

`C[C@@H]1CN(c2ccc(F)cc2)CCN1C(=O)c1ccc2nc(-c3ccc(Cl)cc3)c(CCCCC(=O)O)nc2c1` [compound 488, (R)-5-(3-(4-chlorophenyl)-7-(4-(4-fluorophenyl)-2-methylpiperazine-1-carbonyl)quinoxalin-2-yl)pentanoic acid] showed a Ki of 2.1 to 20 nM.

Molecule `C[C@@H]1CN(c2ccc(F)cc2)CCN1C(=O)c1ccc2nc(-c3ccc(F)cc3)c(CCCCC(=O)O)nc2c1` [compound 489, (R)-5-(3-(4-fluorophenyl)-7-(4-(4-fluorophenyl)-2-methylpiperazine-1-carbonyl)quinoxalin-2-yl)pentanoic acid] gave a Ki of 2.1 to 20 nM.

For `C[C@H]1CN(c2ccc(F)cc2)CCN1C(=O)c1ccc2nc(-c3ccc(Cl)cc3)c(CCCCC(=O)O)nc2c1` [compound 490, (S)-5-(3-(4-chlorophenyl)-7-(4-(4-fluorophenyl)-2-methylpiperazine-1-carbonyl)quinoxalin-2-yl)pentanoic acid], the Ki lay within 2.1 to 20 nM.

`O=C(O)CCCCc1nc2cc(C(=O)N[C@@H]3CCOc4ccccc43)ccc2nc1-c1ccc(F)cc1` [compound 491, (R)-5-(7-(chroman-4-ylcarbamoyl)-3-(4-fluorophenyl)quinoxalin-2-yl)pentanoic acid] gave a Ki of 0.1 to 2 nM.

The molecule `O=C(O)CCCCc1nc2cc(C(=O)N[C@H]3CCOc4ccccc43)ccc2nc1-c1ccc(F)cc1` [compound 492, (S)-5-(7-(chroman-4-ylcarbamoyl)-3-(4-fluorophenyl)quinoxalin-2-yl)pentanoic acid] yielded a Ki of 2.1 to 20 nM.

Molecule `C[C@@H](NC(=O)c1ccc2nc(-c3ccc(Cl)cc3)c(CCCCC(=O)O)nc2c1)c1cccc2ccccc12` [compound 493, (R)-5-(3-(4-chlorophenyl)-7-((1-(naphthalen-1-yl)ethyl)carbamoyl)quinoxalin-2-yl)pentanoic acid] had a Ki of 2.1 to 20 nM.

In turn, `C[C@H](NC(=O)c1ccc2nc(-c3ccc(Cl)cc3)c(CCCCC(=O)O)nc2c1)c1cccc2ccccc12` [compound 494, (S)-5-(3-(4-chlorophenyl)-7-((1-(naphthalen-1-yl)ethyl)carbamoyl)quinoxalin-2-yl)pentanoic acid] had a Ki of 2.1 to 20 nM.

Values taken from US9469615B2, “Quinoxalines and AZA-quinoxalines as CRTH2 receptor modulators” (Merck Sharp & Dohme Corp., priority 2010, dated 2016).
